Converted amounts (≈) assume the structure as drawn.
Key:
[1] = test system: Botrytis cinerea; experiment: Fungicidal activity against drug sensitive Botryotinia fuckeliana assessed as inhibition of germ tube elongation; format: functional, organism-based
[2] = Half life in soil assessed as compound degradation through hydrolysis and microbial degradation
[3] = Half life in drug sensitive Botryotinia fuckeliana cultures; conditions: botrytis cinerea, in vivo
[4] = Botrytis cinerea, read-out: EC50

SMILES	EC50 [1, 4] [µg/mL]	EC50 [1]	half-life [2] [h]	half-life [3] [h]
CC(=O)NC(C#N)C(=O)O (configuration not stated)	0.025 (≈ 0.176 µM)	–	–	–
CCNC(=O)N1C(=O)C(C#N)=NC1(C)C	–	Not Active	–	–
CCN1C(=O)NC(=O)C1=O	–	Not Active	–	–
CCN1C(=O)NC(=O)/C1=N/OC	–	Not Active	–	–
CCNC(=O)NC(=O)/C(C#N)=N/OC [CYMOXANIL]	0.25 (≈ 1.26 µM)	–	< 48	≤ 2

Reference: ChEMBL document CHEMBL3045185, “Characterization of metabolites of fungicidal cymoxanil in a sensitive strain of Botrytis cinerea” (J Agric Food Chem, 2008)
